Measurements taken from PubChem BioAssay AID248 (DTP/NCI, 2004).
Where “and” joins values, the source holds several entries; their conditions need not be identical. Identical values can stand only once. Inconclusive results and toxic doses are left out. Cut-off read from the data, not from the text of the source: active = T/C of 150% or more; inactive = T/C below 125%.

Test system: L1210 leukemia ip in BDF1 mice, survival T/C
Experiment: NCI In Vivo Anticancer Drug Screen. Data for tumor model L1210 Leukemia (intraperitoneal) in B6D2F1 (BDF1) mice
Conditions: endpoint: mean survival time, higher = longer survival
Method in brief: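 Mice bearing the transplanted tumor received compound or vehicle. Survival of the treated group was divided by that of the vehicle-treated control group to give the ratio.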

[1] = dose: 25.0 mg/kg/injection, schedule: Q01DX009 (ip), vehicle: saline with Tween-80
[2] = dose: 50.0 mg/kg/injection, schedule: Q01DX009 (ip), vehicle: saline with Tween-80
[3] = dose: 100.0 mg/kg/injection, schedule: Q01DX009 (ip), vehicle: saline with Tween-80
[4] = dose: 100.0 mg/kg/injection, schedule: Q04DX003 (ip), vehicle: saline
[5] = dose: 200.0 mg/kg/injection, schedule: Q04DX003 (ip), vehicle: saline
[6] = dose: 100.0 mg/kg/injection, schedule: Q04DX003 (ip), vehicle: saline with Tween-80
[7] = dose: 200.0 mg/kg/injection, schedule: Q01DX009 (ip), vehicle: saline with Tween-80
[8] = dose: 200.0 mg/kg/injection, schedule: Q04DX003 (ip), vehicle: saline with Tween-80
[9] = dose: 400.0 mg/kg/injection, schedule: Q01DX009 (ip), vehicle: saline with Tween-80
[10] = dose: 400.0 mg/kg/injection, schedule: Q04DX003 (ip), vehicle: saline with Tween-80
[11] = dose: 4.0 mg/kg/injection, schedule: Q04DX003 (ip), vehicle: water
[12] = dose: 8.0 mg/kg/injection, schedule: Q04DX003 (ip), vehicle: water
[13] = dose: 16.0 mg/kg/injection, schedule: Q04DX003 (ip), vehicle: water
[14] = dose: 32.0 mg/kg/injection, schedule: Q04DX003 (ip), vehicle: water
[15] = dose: 100.0 mg/kg/injection, schedule: Q04DX002 (ip), vehicle: saline with Tween-80
[16] = dose: 200.0 mg/kg/injection, schedule: Q04DX002 (ip), vehicle: saline with Tween-80
[17] = dose: 400.0 mg/kg/injection, schedule: Q04DX002 (ip), vehicle: saline with Tween-80
[18] = dose: 100.0 mg/kg/injection, schedule: Q01DX001 (ip), vehicle: saline
[19] = dose: 200.0 mg/kg/injection, schedule: Q01DX001 (ip), vehicle: saline
[20] = dose: 400.0 mg/kg/injection, schedule: Q01DX001 (ip), vehicle: saline
[21] = dose: 100.0 mg/kg/injection, schedule: Q01DX001 (ip), vehicle: carboxymethylcellulose (CMC)
[22] = dose: 200.0 mg/kg/injection, schedule: Q01DX001 (ip), vehicle: carboxymethylcellulose (CMC)
[23] = dose: 400.0 mg/kg/injection, schedule: Q01DX001 (ip), vehicle: carboxymethylcellulose (CMC)
[24] = dose: 75.0 mg/kg/injection, schedule: Q01DX001 (ip), vehicle: saline
[25] = dose: 150.0 mg/kg/injection, schedule: Q01DX001 (ip), vehicle: saline
[26] = dose: 300.0 mg/kg/injection, schedule: Q01DX001 (ip), vehicle: saline
[27] = dose: 100.0 mg/kg/injection, schedule: Q04DX003 (ip), vehicle: Klucel (hydroxypropylcellulose) (HPC)
[28] = dose: 200.0 mg/kg/injection, schedule: Q04DX003 (ip), vehicle: Klucel (hydroxypropylcellulose) (HPC)
[29] = dose: 400.0 mg/kg/injection, schedule: Q04DX003 (ip), vehicle: Klucel (hydroxypropylcellulose) (HPC)

Measured: T/C

COc1ccc(OC)c(NC(=O)NNC(=O)CNC(=O)Nc2cccc(C)n2)c1
inactive: [1] 94 % of control | [2] 94 % of control | [3] 90 % of control

O=C1CC2(O)CCC1(c1ccccc1)CC2
inactive: dose: 75.0 mg/kg/injection, schedule: Q04DX002 (ip), vehicle: Klucel (hydroxypropylcellulose) (HPC) 92 % of control | dose: 150.0 mg/kg/injection, schedule: Q04DX002 (ip), vehicle: Klucel (hydroxypropylcellulose) (HPC) 100 % of control | dose: 300.0 mg/kg/injection, schedule: Q04DX002 (ip), vehicle: Klucel (hydroxypropylcellulose) (HPC) 95 % of control

CC(C)C(C(=O)O)c1ccccc1 (stereo not drawn)
inactive: [4] 100 % of control | [5] 112 % of control | dose: 400.0 mg/kg/injection, schedule: Q04DX003 (ip), vehicle: saline 107 % of control

CCCCCCCC(N)=O
inactive: [2] 97 % of control | [3] 107 % of control and 90 % of control | [6] 100 % of control | [7] 97 % of control and 106 % of control | [8] 93 % of control | [9] 114 % of control | [10] 91 % of control

O=[N+]([O-])/C(N=Nc1ccc(Br)cc1)=N\Nc1ccc(Br)cc1
inactive: dose: 75.0 mg/kg/injection, schedule: Q01DX001 (ip), vehicle: acetone 87 % of control | dose: 150.0 mg/kg/injection, schedule: Q01DX001 (ip), vehicle: acetone 89 % of control

CCCCNC(=O)NC1CC(OC2CC(O)(C(C)=O)Cc3c(O)c4c(c(O)c32)C(=O)c2c(OC)cccc2C4=O)OC(C)C1O (stereo not drawn)
inactive: dose: 1.0 mg/kg/injection, schedule: Q04DX003 (ip), vehicle: water 104 % of control | dose: 2.0 mg/kg/injection, schedule: Q04DX003 (ip), vehicle: water 97 % of control | [11] 98 % of control | [12] 98 % of control | [13] 94 % of control | [14] 101 % of control

O=C(Cc1ccccc1)NCc1ccc(Cl)cc1
inactive: [15] 96 % of control | [16] 101 % of control | [17] 114 % of control

CCOC1OCN(C)CC1(C)C (stereo not drawn)
inactive: dose: 50.0 mg/kg/injection, schedule: Q01DX009 (ip), vehicle: saline 93 % of control | dose: 100.0 mg/kg/injection, schedule: Q01DX009 (ip), vehicle: saline 109 % of control | [4] 101 % of control | dose: 132.0 mg/kg/injection, schedule: Q01DX009 (ip), vehicle: saline sonified 113 % of control | dose: 200.0 mg/kg/injection, schedule: Q01DX009 (ip), vehicle: saline sonified 118 % of control | [5] 97 % of control

Cc1ccc(SC(=O)Cc2ccc([N+](=O)[O-])cc2)cc1
inactive: [3] 97 % of control | [7] 86 % of control | [9] 93 % of control

CCC(=O)Nc1cccc(OC(=O)N(C)C)c1
inactive: [6] 100 % of control | [8] 98 % of control | [10] 100 % of control

OC/C=C\CO
inactive: [18] 97 % of control and 103 % of control | [19] 97 % of control and 100 % of control | [20] 97 % of control and 105 % of control

O=C(O)C(=O)Cc1ccc(O)cc1
inactive: dose: 50.0 mg/kg/injection, schedule: Q01DX001 (ip), vehicle: carboxymethylcellulose (CMC) 105 % of control | [21] 96 % of control | [22] 91 % of control | [23] 100 % of control

O=[N+]([O-])C1C2CCC(C2)C1[N+](=O)[O-] (stereo not drawn)
inactive: [24] 91 % of control | [25] 100 % of control | [26] 87 % of control

CCOC(=O)CC1C(C)C(C)NC(C)C1C (stereo not drawn)
inactive: [24] 94 % of control | [25] 103 % of control

CC1CC(=O)c2c(O)ccc(O)c21 (stereo not drawn)
inactive: [21] 96 % of control | [22] 89 % of control | [23] 100 % of control

O=C(O)CCCC(=O)CCCC(=O)O
inactive: [18] 98 % of control | [19] 93 % of control | [20] 104 % of control

Nc1cc(C(=O)O)ccc1Cl
inactive: [18] 105 % of control | [19] 95 % of control | [20] 95 % of control

COc1ccc(-c2c(-c3ccccc3)c(=O)oc3ccc4ccccc4c23)cc1
inactive: [27] 97 % of control | [28] 100 % of control | [29] 97 % of control

CCC1=C(C)CC2c3cc(OC)c(OC)cc3CCN2C1 (stereo not drawn)
inactive: [11] 110 % of control | [12] 103 % of control | [13] 104 % of control | [14] 108 % of control | dose: 64.0 mg/kg/injection, schedule: Q04DX003 (ip), vehicle: water 106 % of control | [24] 103 % of control | [25] 94 % of control | [26] 101 % of control

CC(C)N(C)C(C1=CC(C)(C)c2ccccc2C1=O)c1ccccc1 (stereo not drawn)
inactive: [27] 108 % of control | [28] 101 % of control | [29] 101 % of control

CCCCN(CCCC)S(=O)(=O)CCl
inactive: [15] 116 % of control | [16] 108 % of control | [17] 105 % of control

COc1ccc(C(=O)CBr)c(OC)c1
inactive: dose: 12.5 mg/kg/injection, schedule: Q04DX003 (ip), vehicle: saline 104 % of control | [1] 96 % of control | dose: 25.0 mg/kg/injection, schedule: Q04DX003 (ip), vehicle: saline 97 % of control | dose: 50.0 mg/kg/injection, schedule: Q04DX003 (ip), vehicle: saline 93 % of control | [6] 97 % of control

O=[N+]([O-])c1cc(C(F)(F)C(F)(F)C(F)(F)c2ccc(O)c([N+](=O)[O-])c2)ccc1O
inactive: dose: 25.6 mg/kg/injection, schedule: Q04DX002 (ip), vehicle: saline with Tween-80 95 % of control | dose: 64.0 mg/kg/injection, schedule: Q04DX002 (ip), vehicle: saline with Tween-80 100 % of control | dose: 160.0 mg/kg/injection, schedule: Q04DX002 (ip), vehicle: saline with Tween-80 92 % of control

C#CC1(OC(N)=O)CCCCC1
inactive: dose: 100.0 mg/kg/injection, schedule: Q01DX009 (ip), vehicle: Klucel (hydroxypropylcellulose) (HPC) 98 % of control | dose: 200.0 mg/kg/injection, schedule: Q01DX009 (ip), vehicle: Klucel (hydroxypropylcellulose) (HPC) 91 % of control | dose: 400.0 mg/kg/injection, schedule: Q01DX009 (ip), vehicle: Klucel (hydroxypropylcellulose) (HPC) 98 % of control

c1ccc([P+]2(Cc3cccc4ccccc34)CCc3[nH]c4ccccc4c3C2)cc1 (stereo not drawn)
inactive: [27] 96 % of control | [28] 98 % of control

COc1ccc(Nc2ccc(O)c3c2C(=O)c2ccccc2C3=O)c(Br)c1
inactive: [18] 101 % of control | [19] 95 % of control | [20] 97 % of control
